Results taken from article PMC4118831, “Interaction of serum amyloid P component with hexanoyl bis(D-proline) (CPHPC)” (Acta Crystallographica Section D: Biological Crystallography, 2014).

Target: T1, serum amyloid P component (SAP) (Homo sapiens, UniProt P02743)
T1 construct: gene APCS; pentamer purified from serum; 204-residue subunits
Assay: ITC; crystal structure
Assay type: binding

T1 sequence (P02743 20-223): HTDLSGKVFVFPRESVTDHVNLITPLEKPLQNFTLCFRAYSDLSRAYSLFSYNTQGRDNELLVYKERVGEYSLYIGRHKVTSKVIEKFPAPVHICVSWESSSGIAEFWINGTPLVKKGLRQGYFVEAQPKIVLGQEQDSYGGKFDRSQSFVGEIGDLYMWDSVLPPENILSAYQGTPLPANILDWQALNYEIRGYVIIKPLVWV

## CC(=O)N1CCC[C@@H]1C(=O)O [N-acetyl-D-proline]
  Kd: 18.6 µM

## CC(=O)N1CCC[C@H]1C(=O)O [N-acetyl-L-proline]
  Kd: 322 µM
